The values below come from patent US12352767B2, “Method of treating cognitive decline associated with neurological diseases based on a decrease in FLT4 expression or activity” (University of Virginia Patent Foundation, priority 2018, dated 2025).

The test system of data set [1] is brain hippocampus and cortex. The data set is described as follows: T1-weighted MRI of brain influx of i.c.m. gadolinium, Lymph4D analysis. It is filed as in vivo, mice. The text has this:
Measurement of gadolinium influx rate and modeling of tracer advection-diffusion within the brain were achieved using Lymph4D, a software developed in-house and available for revision purposes on the following link on the world wide web: viva-lab.ece.virginia.edu/lymph4d. To allow for a direct comparison between the different conditions, the MRI stacks Si(x, y, z, t) of the imaged mice (4 vehicle and 4 Visudyne) were aligned to a Visudyne stack V1(x, y, z, t), chosen as reference. Before proceeding with the automated registration in the (x, y) plane, the stacks were manually aligned along the z (sagittal) direction, to ensure the correspondence between (x, y) (transversal plane) slices, and cropped both in the z and t (time) direction, to ensure that each set of coordinates (x, y, z, t) contained meaningful data. To optimize the slice alignment in the (x, y) plane, scale pyramids (Adelson, E. H., Anderson, C. H., Bergen, J. R., Burt, P. J. & Ogden, J. M. Pyramid methods in image processing. RCA engineer 29, 33-41, (1984).) (3 levels deep) were computed for both the image to be registered and the reference. Starting from the coarser scale, the optimal non-reflective transformation matrix (restricted to translation, rotation, and scaling) was evaluated by using an iterative process based on the steep gradient descent method with a mean square error (MSE) cost function. After reaching algorithm convergence at the largest scale, or the maximum number of allowed iterations, the alignment was refined using progressively finer scales. A linear interpolation mapping was then used to reconstruct the image registered using the optimized transformation matrix. The following alignment strategy was used. Given a stack Si to be aligned to V1, for every slice zj(t)=Si(x, y, zj, t) at a given location in the sagittal direction (z=zj), the optimal transformation matrix was evaluated at every available time (t) and the quality (MSE) of the resulting alignment measured. […] Also, after the alignment, contrast measurement, providing the difference between the maximum and the minimum values observed along the temporal direction during the experiment duration (variability in tracer signal intensity over time), was evaluated for a given (x, y, z) location in the S; stack using: […]
The model was discretized using the forward-time central-space (FTCS) finite difference method (Ferziger, J. H. & Perić, M. Finite Difference Methods. In: Computational Methods for Fluid Dynamics. 3rd edition, 39-69, Springer, Berlin, Heidelberg, (2002).) after the following assumptions. The concentration (x, t) was considered proportional to the measured MRI signal intensity. […]

The test system of data set [2] is mice. Nature of the data set: Open field test. Particulars: Visudyne/photoconversion twice, two-week interval, adult mice. In kind it is in vivo. The procedure:
Open field was performed following a published protocol^51 with minor modifications. Mice were carried to the behavior room to habituate at least 30 min before starting the test. Mice were then placed into the open field arena (made of opaque white plastic material, 35 cm×35 cm) by a blinded experimenter and allowed to explore it for 15 min. Total distance (cm) and % time spent in the center (22 cm×22 cm) were quantified using video tracking software (TopScan, CleverSys, Inc.).

Data set [3] deals with mice. The data set is described as follows: Novel location recognition test. It is filed as in vivo. Particulars: Visudyne/photoconversion twice, adult mice. As for the experimental part: Novel location recognition test was performed following a published protocol^52 with modifications. The experimental apparatus used in this study was the same square box made of opaque white plastic (35 cm×35 cm) used in the Open field test. The mice were first habituated to the apparatus for 15 min. Two different plastic objects (one red and the other blue and with different shapes) were then positioned in a defined spatial orientation, namely on each corner of the arena and 5 cm away from each adjacent arena wall. Mice were then placed in the arena (by a blinded experimenter), facing the wall farther away from the objects and allowed to explore the arena and objects for 10 min. Twenty-four hours later, the mice were placed in the same box with the same two objects, but one of them had switched location and was placed in a new quadrant, obliquely to the familiar object (novel location test). The time spent exploring the objects in the familiar and novel locations was also measured for 10 min. Exploration of an object was assumed when the mouse approached an object and touched it with its vibrissae, snout or forepaws and was measured using a video tracking software (TopScan, CleverSys, Inc.). The object location preference (% of time with object) was calculated as the exploration time of the objects in the familiar or in the novel location/total exploration time.

The subject of data set [4] is brain/meningeal vasculature. The data set is described as follows: Photoacoustic imaging of brain/meningeal blood flow and oxygenation. In kind it is in vivo. Particulars: 5xFAD mice, 1 week after Visudyne/photoconversion. The source says:
Adult mice were maintained under anesthesia with 1.5% isoflurane and at a constant body temperature with the aid of a heating pad. A surgical incision was made in the scalp and the fascia was removed to expose the skull. One day prior to the imaging, the skull over the region of interest was thinned to the desired thickness (˜100 μm). Mice were then imaged by multi-parametric photoacoustic microscopy, which is capable of simultaneously image oxygen saturation of hemoglobin (sO2) and blood flow speed as described previously^50. Using the oxy-hemoglobin and deoxy-hemoglobin values, recorded using two nanosecond-pulsed lasers (532 and 559 nm), it is possible to compute the final sO2. Correlation analysis of adjacent A-line signals allows the quantification of blood flow speed within individual vessels. By segmenting major vessels within the region of interest, average values of the blood flow speed and sO2 were extracted for quantitative analysis.

“Also recorded” adds a separate entry of the source.

For verteporfin [Visudyne], in data set [1] (7 days after Visudyne/photoconversion, Gd 25 mM i.c.m., 16 MRI sequences (~52 min), vs vehicle), the “Gd signal gain in hippocampus and cortex” value is listed as “significantly lower”. In data set [1] (Visudyne-treated mice, over ~52 min), the “contrast in Gd signal intensity in the ventricles” value is on record as “higher contrast in signal intensity”. Moreover, in data set [1] (after meningeal lymphatic ablation with Visudyne, advection-diffusion model in Lymph4D), the “isotropic diffusion coefficient of Gd in the brain” value is on record as “lower coefficient values”. For the same substance, in data set [1] (one week after Visudyne/photoconversion, Gd 25 mM i.c.m., vs vehicle/photoconversion), the “Gd signal intensity gain (relative to sequence 1) in the brain cortex” value is recorded as “significant decrease”. Also, in the data set on mice [2], the “open field time in center of the arena” value was “No differences between the groups” and the “open field total distance” value is recorded as “No differences between the groups”. Moreover, in the data set on mice [3], the “NLR novel location task (time with object in novel location)” value was “No differences between the groups; also recorded: identical” and the NLR training performance result is “identical”. In data set [4], the “blood flow in brain/meninges” value is reported as “no differences; also recorded: did not affect” and the “blood oxygenation in brain/meninges” value is reported as “no differences; also recorded: did not affect”.
